Where two headings read alike, the source gives them in different places.
Columns and labels:
[1] = In-vitro liver microsomal stability, human; format: in vitro ADME; settings: human liver microsomes 0.5 mg/mL, 1 µM, NADPH 1 mM, 37 °C
Method: (§1) Method: The metabolic stability of test substances was evaluated by using human, dog, and SD rat liver microsomes. The test substances were incubated with liver microsomes from different species and NADPH in a water bath at 37 °C. In the incubation system, the final concentration of the test or control sample was 1 µM, the final concentration of liver microsomes was 0.5 mg/mL, the final concentration of NADPH was 1 mM, and the final concentration of MgCl2 was 3 mM. At designated time points (5 min, 10 min, 20 min, 30 min, and 60 min), the reaction was stopped by adding a cold acetonitrile solution containing tolbutamide (at a concentration of 200 ng/mL) as an internal standard. For the 0-min sample, the stop solution was added before the addition of the NADPH working solution. Testosterone and dextromethorphan were used as positive control samples in the same conditions to assess the stability and reliability of the system. After sample pretreatment, semiquantitative analysis was performed using the LC-MS/MS method. The retention times of the analytes and internal standard, the acquisition of chromatograms and the integration of chromatograms were processed using software Analyst (AB Sciex, Framingham, Massachusetts, USA). The remaining percentage of the test samples after 60 min of incubation was calculated, and the test results are shown in Table 3. Table 3. Test data for the compounds of the present disclosure in human, dog, and rat liver microsomes

HCT116 cells = assay: Antagonistic effect assay against HCT116 cell proliferation (CellTitle-Glo); format: cell-based; settings: Homo sapiens, HCT-116, 72 h treatment, 0.01-10.00 µM, read-out: Antiproliferative IC50
Method: Frozen HCT116 cells were rapidly transferred from liquid nitrogen to a 37 °C water bath and rapidly shaken for thawing. The cell suspension was transferred to a 15 mL centrifuge tube and centrifuged at 1500 rpm for 5 min, and the supernatant was discarded. The cell pellet was resuspended in RPMI-1640 complete medium (containing 10% fetal bovine serum and 1% penicillin/streptomycin) and transferred to a cell culture dish containing 10 mL of medium. The cells were cultured in an incubator at 37 °C/5% CO2. The cells were passaged after adhesion to the wall.
HCT116 cells in the logarithmic growth phase and in good condition were taken, digested with a trypsin solution, resuspended in a certain amount of RPMI-1640 complete medium to form a single-cell suspension, counted on a cell counting plate, and seeded into a 96-well white plate at a density of 800 cells/well. The plate was left to stand for 5 min and then incubated in an incubator at 37 °C/5% CO2 overnight. The next day, the cells were treated with the compound at different concentrations, and the control group was treated with DMSO at the corresponding concentration. The compound, dissolved in DMSO, was diluted in RPMI-1640 complete medium at a ratio of 1:1000 to obtain final concentrations of 10.00 µM, 3.33 µM, 1.11 µM, 0.37 µM, 0.12 µM, 0.04 µM, and 0.01 µM. Each group was set up with 3 replicate wells, and 100 µL of the treatment solution was added to each well. The plate was incubated in an incubator at 37 °C/5% CO2 for 72 h.
After 72 h of treatment, the CellTitle-Glo assay was performed. 100 µL of CellTitle-Glo solution was added to each well of the control and treatment groups. The plate was mixed on an oscillator for 2 min to induce cell lysis. The 96-well plate was incubated at room temperature for 10 min to stabilize the luminescence signal value. The luminescence signal was measured using a microplate reader. The DMSO-treated cell group was used as the control group, and 50% inhibitory concentration (IC50) was calculated according to the median effect equation as follows: [formula]
The IC50 values of the compounds were calculated using GraphPad Prism nonlinear fitting equation. Table 2. Results for the inhibitory effect of the compounds of the present disclosure on HCT116 cell proliferation

[2] = In-vitro liver microsomal stability, rat; format: in vitro ADME; settings: SD rat liver microsomes 0.5 mg/mL, 1 µM, NADPH 1 mM, 37 °C
Method: as §1

CDK2/Cyclin E1 = target: T1, CDK2/Cyclin E1 (Homo sapiens, UniProt P24941); assay: CDK2 kinase antagonistic activity assay (TR-FRET); format: biochemical; settings: TR-FRET; peptide mix containing 10 µM ATP; 90 min at 23 °C; read-out: CDK2/Cyclin E1 IC50
T1 construct: purchased Invitrogen PV6296
Method: (§2) Compounds were dissolved in DMSO and serially diluted 3-fold to generate 11 concentrations. 100 nL of each compound was added to 384-well plates, followed by the addition of 5 µL of 2× CDK2/Cyclin E1 or CDK1/Cyclin B enzyme mixed solution. 5 µL of buffer (50 mM Hepes (pH 7.5), 10 mM MgCl2, 1 mM EDTA, 0.01% Brij-35, 2 mM DTT (prepared freshly)) was added to the complete inhibition control wells. The plates were centrifuged at 1000 rpm for 30 s and incubated at 23 °C for 15 min. Then, 5 µL of 2× MLight-MBP peptide (containing 10 µM ATP) was added to each well of each assay plate. The plates were centrifuged again at 1000 rpm for 30 s and incubated at 23 °C for 90 min.
After the incubation was completed, the reaction was stopped with a detection buffer containing 15 mM EDTA and 2 nM Eu-anti-P-MBP antibody. After centrifugation at 1000 rpm for about 1 min, the plates were incubated at 23 °C for 60 min and read on Perkin Elmer Envision. The TR-FRET ratio (value at 665 nm/value at 615 nm) was automatically calculated by Envision.
(§3) The IC50 values of the compounds were calculated using GraphPad Prism nonlinear fitting equation. Table 1. Kinase activity assay

[3] = In-vitro liver microsomal stability, dog; format: in vitro ADME; settings: dog liver microsomes 0.5 mg/mL, 1 µM, NADPH 1 mM, 37 °C
Method: as §1

CDK1/Cyclin B = target: T2, CDK1/Cyclin B (Homo sapiens, UniProt P06493); assay: CDK1 kinase activity assay (TR-FRET); format: biochemical
T2 construct: purchased Invitrogen PR4768C
Method: as §2
After the incubation was completed, the reaction was stopped with a detection buffer containing 15 mM EDTA and 2 nM Eu-anti-P-MBP antibody. After centrifugation at 1000 rpm for about 1 min, the plates were incubated at 23 °C for 60 min and read on Perkin Elmer Envision.
as §3

[4] = Permeability and transporter substrate evaluation, Caco-2 monolayer; format: in vitro ADME; settings: human, Caco-2, Table 4 experimental system, Caco-2, 2.00 µM
Method: (§4) Cell: Caco-2 cells Instrument: water purification equipment, ELGA LabWate; biosafety cabinet, Nuaire; thermostatic CO2 incubator, Thermo; microplate reader, PerkinElmer; LC-MS/MS, AB SCIEX. Method: The purpose of this study was to determine the two-way permeability of the compounds and evaluate whether they are effluxed and transported by P-glycoprotein (P-gp) using a Caco-2 monolayer cell model. In the experiment, Caco-2 cells were seeded into a 96-well cell plate and cultured for 24 consecutive days for the transport experiment. The compounds were administered bidirectionally at a concentration of 2.00 µM, with or without verapamil. After 120 min of incubation, the samples at the apical end A and the basal end B were collected. The content of the test samples in each sample was measured using the liquid chromatography-tandem mass spectrometry (LC-MS/MS) method. The apparent permeability coefficient and the efflux rate were calculated. Two experimental systems were used successively in this part, with the reference compound (PF-07104091) included. Table 4. Permeability test results

P-glycoprotein (P-gp) = assay: as above; format: in vitro ADME; settings: human, Caco-2, Table 4 experimental system, Caco-2, 2.00 µM
Method: as §4

[5] = TR-FRET, peptide mix containing 10 µM ATP, 90 min at 23 °C, read-out: CDK1/Cyclin B1 IC50

T2 sequence (P06493 whole entry): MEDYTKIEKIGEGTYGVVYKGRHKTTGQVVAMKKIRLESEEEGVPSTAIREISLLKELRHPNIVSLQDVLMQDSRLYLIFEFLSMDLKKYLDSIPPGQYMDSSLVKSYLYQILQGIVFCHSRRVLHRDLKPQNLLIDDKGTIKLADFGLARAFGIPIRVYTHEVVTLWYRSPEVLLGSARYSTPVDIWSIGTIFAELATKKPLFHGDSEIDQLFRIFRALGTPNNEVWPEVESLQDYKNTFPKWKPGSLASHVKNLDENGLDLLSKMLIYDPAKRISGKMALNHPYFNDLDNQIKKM
T2 sequence (P14635 whole entry partner): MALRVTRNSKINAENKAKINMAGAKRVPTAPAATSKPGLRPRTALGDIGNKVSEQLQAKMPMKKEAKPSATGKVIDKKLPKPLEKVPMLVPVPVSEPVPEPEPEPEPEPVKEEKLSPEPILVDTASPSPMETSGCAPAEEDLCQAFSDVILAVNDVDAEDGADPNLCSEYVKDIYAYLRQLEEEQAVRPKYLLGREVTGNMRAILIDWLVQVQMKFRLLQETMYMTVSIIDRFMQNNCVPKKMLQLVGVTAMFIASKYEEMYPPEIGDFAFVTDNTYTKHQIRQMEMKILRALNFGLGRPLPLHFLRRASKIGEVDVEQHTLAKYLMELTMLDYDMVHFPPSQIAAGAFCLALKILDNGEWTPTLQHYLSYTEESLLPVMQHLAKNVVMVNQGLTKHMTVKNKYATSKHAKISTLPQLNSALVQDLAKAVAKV

SMILES	Remaining amount% at 60 min Human [1] [%]	IC50 (HCT116 cells) [nM]	Remaining amount% at 60 min Rat [2] [%]	IC50 (CDK2/Cyclin E1) [nM]	Remaining amount% at 60 min Dog [3] [%]	IC50 (CDK1/Cyclin B; [5]) [nM]	Papp A→B at 120 min, 2 µM [4] [×10⁻⁶ cm/s]	Papp B→A at 120 min, 2 µM [4] [×10⁻⁶ cm/s]	efflux ratio at 120 min, 2 µM (P-glycoprotein (P-gp))	IC50 (CDK1/Cyclin B) [nM]
COCc1cc(C(=O)Nc2cc([C@H]3C[C@@H](F)[C@@H](OC(=O)NC(C)C)C3)[nH]n2)n(C)n1 [Compound 11]	105	1610	104	1.07	99					
Cn1nc(CS(C)(=O)=O)cc1C(=O)Nc1cc([C@@H]2C[C@H](OC(=O)N3CCC3(C)C)CO2)[nH]n1 [Compound 27]	91.3	3010	81.2	9.32	96.7	54.2				
CC(C)NC(=O)O[C@@H]1CC[C@H](c2cc(Nc3ccc(N4CCN(C)CC4)cc3)n[nH]2)C1 [Compound 9]	93.2	2620	27.7	4.38	7.34	138	0.52	43.8	84.2	
COCc1cc(C(=O)Nc2cc([C@H]3CC[C@@H](OC(=O)NCC=C(F)F)C3)[nH]n2)n(C)n1 [Compound 3]	90.9	2090	74.6	1.22	86.7	78.2	0.218	32.8	150	
COCc1cc(C(=O)Nc2cc([C@H]3CC[C@@H](OC(=O)N(C)C4CCC(=C(F)F)CC4)C3)[nH]n2)n(C)n1 (stereo partly shown) [Compound 2]	5.38	2470	3.87	5.15	12.7	42.5	0.218	43.4	199	
C#CC(C)NC(=O)O[C@@H]1CC[C@H](c2cc(NC(=O)c3cc(COC)nn3C)n[nH]2)C1 (stereo partly shown) [Compound 4]	93.5	2340	77.9	2.58	77.9	460	0.0791	30.8	390	
CC(C)NC(=O)O[C@@H]1CC[C@H](c2cc(NC(=O)c3cc(CS(C)(=O)=O)nn3C)n[nH]2)C1 [Compound 7]	93.2	2250	101	0.64	101	90	< 0.26	14.4	> 55.4	
COCc1cc(C(=O)Nc2cc([C@H]3CC[C@@H](OC(=O)N4CC5(CCN(C)CC5)C4)C3)[nH]n2)n(C)n1 [Compound 10]	103	7110	92	8.71	95					
COCc1cc(C(=O)Nc2cc([C@H]3CC[C@@H](OC(=O)NC45CC6CC(CC(C6)C4)C5)C3)[nH]n2)n(C)n1 [Compound 6]	11.0	2640	1.80	0.95	30.3		0.54	26.3	48.7	78.4
COCc1cc(C(=O)Nc2cc([C@H]3CC[C@@H](OC(=O)NC(C)C#N)C3)[nH]n2)n(C)n1 (stereo partly shown) [Compound 1]	80.3	3660	85.0	2.24	92.0	78.2	< 0.48	19.3	> 40.2	
